Laboratory results taken from paper PMC5760531, “Action Potential Recording and Pro-arrhythmia Risk Analysis in Human Ventricular Trabeculae” (Frontiers in Physiology, 2018).
Several values for one entry are separate records, joined by “and”; a condition that tells them apart may be missing. Equal entries are not always repeated.

Experiments:
[1] = system: human ventricular trabeculae; set-up: method as in Page et al., 2016; details: 0.1 uM; ref Page et al., 2016; cited from earlier work
[2] = system: human ventricular trabeculae; experiment: Action potential recording and pro-arrhythmic score analysis in human ventricular trabeculae (hVT);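 note: sharp microelectrode action potential recordings at 37°C in Tyrode-perfused trabeculae, 4 cumulative concentrations each applied 31 min, values averaged over last 30 APs, vehicle 0.1% DMSO as control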
[3] = system: hERG; details: ref Rampe et al., 1998; Qu and Vargas, 2015; cited from earlier work
[4] = human free (unbound) effective therapeutic plasma concentration used to calculate multiples; cited from earlier work
[5] = 1Hz, c1-c4: 1.5-, 5-, 15-, 150-FOLD free ETPC (0.002µM)
[6] = 2Hz, c1-c4: 1.5-, 5-, 15-, 150-FOLD free ETPC (0.002µM)
[7] = average raw data, 1Hz, c2-c5: 1.5-, 5-, 15-, 150-FOLD free ETPC (0.002µM)
[8] = average raw data, 2Hz, c2-c5: 1.5-, 5-, 15-, 150-FOLD free ETPC (0.002µM)
[9] = 1Hz, 1.5-FOLD free ETPC (0.002µM)
[10] = 1Hz, 15-FOLD free ETPC (0.002µM)
[11] = 1Hz, 150-FOLD free ETPC (0.002µM)
[12] = 1Hz, 1500-FOLD free ETPC (0.002µM)
[13] = 2Hz, 1.5-FOLD free ETPC (0.002µM)
[14] = 2Hz, 15-FOLD free ETPC (0.002µM)
[15] = 2Hz, 150-FOLD free ETPC (0.002µM)
[16] = 2Hz, 1500-FOLD free ETPC (0.002µM)
[17] = average raw data, 1Hz, c2-c5: 1.5-, 15-, 150-, 1500-FOLD free ETPC (0.002µM)

## CN(CCOc1ccc(NS(C)(=O)=O)cc1)CCc1ccc(NS(C)(=O)=O)cc1 [DOFETILIDE, Dofetilide]
[1]
  APD90 prolongation: ~ 100%
[2]; 0.003, 0.01, 0.03, and 0.3 μM, total of 4 trabeculae
  EAD: without any EAD
[2]; [5]
  Beat Escape incidence: 0%
  EADs incidence: 0%
  Refractoriness Escape incidence: 0%
[2]; [6]
  EADs incidence: 0%
  Refractoriness Escape incidence: 0%
[2]; [7]
  AMAX: 106 mV and 107 mV
  APD90: 274 ms and 303 ms and 385 ms and 510 ms
  Beat Escape: 0
  EADs: 0
  ERP: 0.43 and 0.47 and 0.52 and 0.59
  Refractoriness Escape: 0
[2]; [8]
  AMAX: 102 mV and 100 mV and 101 mV
  APD90: 216 ms and 251 ms and 296 ms and 411 ms
  EADs: 0
  ERP: 0.44 and 0.49 and 0.52 and 0.56
  Refractoriness Escape: 0

## O=C1NCCN1CCN1CCC(c2cn(-c3ccc(F)cc3)c3ccc(Cl)cc23)CC1 [SERTINDOLE, Sertindole]
[3]
  hERG IC50: sub-micromolar
[2]; [9]
  AMAX percentage change compared to vehicle control: 5%
  APD30 percentage change compared to vehicle control: 6%
  APD50 percentage change compared to vehicle control: 6%
  APD90 percentage change compared to vehicle control: 5%
  Alternans percentage change compared to vehicle control: 54%
  Beat Escape percentage change compared to vehicle control: 0%
  EADs percentage change compared to vehicle control: 0%
  ERP percentage change compared to vehicle control: 1%
  Max Dispersion percentage change compared to vehicle control: -15%
  RMP percentage change compared to vehicle control: 1%
  Refractoriness Escape percentage change compared to vehicle control: 0%
  STV percentage change compared to vehicle control: 31%
  Triangulation percentage change compared to vehicle control: 4%
[2]; [10]
  AMAX percentage change compared to vehicle control: 5%
  APD30 percentage change compared to vehicle control: -1%
  APD50 percentage change compared to vehicle control: 0%
  APD90 percentage change compared to vehicle control: 0%
  Alternans percentage change compared to vehicle control: -5%
  Beat Escape percentage change compared to vehicle control: 0%
  EADs percentage change compared to vehicle control: 0%
  ERP percentage change compared to vehicle control: 3%
  Max Dispersion percentage change compared to vehicle control: -35%
  RMP percentage change compared to vehicle control: 3%
  Refractoriness Escape percentage change compared to vehicle control: 0%
  STV percentage change compared to vehicle control: 0%
  Triangulation percentage change compared to vehicle control: 3%
[2]; [11]
  AMAX percentage change compared to vehicle control: 5%
  APD30 percentage change compared to vehicle control: 4%
  APD50 percentage change compared to vehicle control: 6%
  APD90 percentage change compared to vehicle control: 7%
  Alternans percentage change compared to vehicle control: 31%
  Beat Escape percentage change compared to vehicle control: 0%
  EADs percentage change compared to vehicle control: 0%
  ERP percentage change compared to vehicle control: 7%
  Max Dispersion percentage change compared to vehicle control: -3%
  RMP percentage change compared to vehicle control: 2%
  Refractoriness Escape percentage change compared to vehicle control: 0%
  STV percentage change compared to vehicle control: 23%
  Triangulation percentage change compared to vehicle control: 12%
[2]; [12]
  AMAX percentage change compared to vehicle control: 4%
  APD30 percentage change compared to vehicle control: 1%
  APD50 percentage change compared to vehicle control: 6%
  APD90 percentage change compared to vehicle control: 8%
  Alternans percentage change compared to vehicle control: -12%
  Beat Escape percentage change compared to vehicle control: 0%
  EADs percentage change compared to vehicle control: 0%
  ERP percentage change compared to vehicle control: 13%
  Max Dispersion percentage change compared to vehicle control: -30%
  RMP percentage change compared to vehicle control: 3%
  Refractoriness Escape percentage change compared to vehicle control: 0%
  STV percentage change compared to vehicle control: -24%
  Triangulation percentage change compared to vehicle control: 19%
[2]; [13]
  AMAX: 109
  AMAX percentage change compared to vehicle control: 3%
  APD30: 104
  APD30 percentage change compared to vehicle control: -1%
  APD50: 139
  APD50 percentage change compared to vehicle control: 0%
  APD90: 197
  APD90 percentage change compared to vehicle control: 0%
  Alternans: 1.61
  Alternans percentage change compared to vehicle control: 93%
  Beat Escape: 0
  Beat Escape percentage change compared to vehicle control: 0%
  EADs: 0
  EADs percentage change compared to vehicle control: 0%
  ERP: 0.43
  ERP percentage change compared to vehicle control: 2%
  Max Dispersion: 4.87
  Max Dispersion percentage change compared to vehicle control: 7%
  RMP: -85
  RMP percentage change compared to vehicle control: 1%
  Refractoriness Escape: 0
  Refractoriness Escape percentage change compared to vehicle control: 0%
  STV: 1.20
  Triangulation: 93
  Triangulation percentage change compared to vehicle control: 1%
[2]; [14]
  AMAX: 110
  AMAX percentage change compared to vehicle control: 4%
  APD30: 104
  APD30 percentage change compared to vehicle control: -1%
  APD50: 139
  APD50 percentage change compared to vehicle control: 0%
  APD90: 199
  APD90 percentage change compared to vehicle control: 1%
  Alternans: 0.69
  Alternans percentage change compared to vehicle control: -17%
  Beat Escape: 0
  Beat Escape percentage change compared to vehicle control: 0%
  EADs: 0
  EADs percentage change compared to vehicle control: 0%
  ERP: 0.44
  ERP percentage change compared to vehicle control: 4%
  Max Dispersion: 3.50
  Max Dispersion percentage change compared to vehicle control: -23%
  RMP: -87
  RMP percentage change compared to vehicle control: 3%
  Refractoriness Escape: 0
  Refractoriness Escape percentage change compared to vehicle control: 0%
  STV: 0.48
  Triangulation: 95
  Triangulation percentage change compared to vehicle control: 3%
[2]; [15]
  AMAX: 110
  AMAX percentage change compared to vehicle control: 5%
  APD30: 112
  APD30 percentage change compared to vehicle control: 6%
  APD50: 150
  APD50 percentage change compared to vehicle control: 8%
  APD90: 214
  APD90 percentage change compared to vehicle control: 9%
  Alternans percentage change compared to vehicle control: 30%
  Beat Escape: 0
  Beat Escape percentage change compared to vehicle control: 0%
  EADs: 0
  EADs percentage change compared to vehicle control: 0%
  ERP: 0.45
  ERP percentage change compared to vehicle control: 7%
  Max Dispersion: 3.78
  Max Dispersion percentage change compared to vehicle control: -17%
  RMP: -87
  RMP percentage change compared to vehicle control: 3%
  Refractoriness Escape: 0
  Refractoriness Escape percentage change compared to vehicle control: 0%
  STV: 0.78
  Triangulation: 103
  Triangulation percentage change compared to vehicle control: 12%
[2]; [16]
  AMAX: 110
  AMAX percentage change compared to vehicle control: 4%
  APD30: 107
  APD30 percentage change compared to vehicle control: 1%
  APD50: 150
  APD50 percentage change compared to vehicle control: 8%
  APD90: 221
  APD90 percentage change compared to vehicle control: 12%
  Alternans: 0.59
  Alternans percentage change compared to vehicle control: -29%
  Beat Escape: 0
  Beat Escape percentage change compared to vehicle control: 0%
  EADs: 0
  EADs percentage change compared to vehicle control: 0%
  ERP: 0.48
  ERP percentage change compared to vehicle control: 13%
  Max Dispersion: 2.80
  Max Dispersion percentage change compared to vehicle control: -39%
  RMP: -87
  RMP percentage change compared to vehicle control: 3%
  Refractoriness Escape: 0
  Refractoriness Escape percentage change compared to vehicle control: 0%
  STV: 0.42
  Triangulation: 114
  Triangulation percentage change compared to vehicle control: 23%
[2]; at 10-fold human free ETPC, score >10 unsafe, <10 safe
  TdP identification by pro-arrhythmic score: TdP negative
[2]; [17]
  AMAX: 112 mV and 111 mV
  APD30: 159 ms and 150 ms and 158 ms and 153 ms
  APD50: 205 ms and 195 ms and 207 ms and 206 ms
  APD90: 272 ms and 261 ms and 279 ms and 282 ms
  Alternans: 0.83 and 0.51 and 0.71 and 0.47
  Beat Escape: 0
  EADs: 0
  ERP: 0.41 and 0.42 and 0.44 and 0.46
  Max Dispersion: 3.13 and 2.38 and 3.55 and 2.58
  Refractoriness Escape: 0
  STV: 0.54 and 0.39 and 0.47 and 0.31
  Triangulation: 113 and 111 and 121 and 129
[4]
  Free ETPC: 0.002 µM
